Experiment [1] deals with T1, IKKβ (Homo sapiens, UniProt O14920).
T1 sequence (O14920 1-756): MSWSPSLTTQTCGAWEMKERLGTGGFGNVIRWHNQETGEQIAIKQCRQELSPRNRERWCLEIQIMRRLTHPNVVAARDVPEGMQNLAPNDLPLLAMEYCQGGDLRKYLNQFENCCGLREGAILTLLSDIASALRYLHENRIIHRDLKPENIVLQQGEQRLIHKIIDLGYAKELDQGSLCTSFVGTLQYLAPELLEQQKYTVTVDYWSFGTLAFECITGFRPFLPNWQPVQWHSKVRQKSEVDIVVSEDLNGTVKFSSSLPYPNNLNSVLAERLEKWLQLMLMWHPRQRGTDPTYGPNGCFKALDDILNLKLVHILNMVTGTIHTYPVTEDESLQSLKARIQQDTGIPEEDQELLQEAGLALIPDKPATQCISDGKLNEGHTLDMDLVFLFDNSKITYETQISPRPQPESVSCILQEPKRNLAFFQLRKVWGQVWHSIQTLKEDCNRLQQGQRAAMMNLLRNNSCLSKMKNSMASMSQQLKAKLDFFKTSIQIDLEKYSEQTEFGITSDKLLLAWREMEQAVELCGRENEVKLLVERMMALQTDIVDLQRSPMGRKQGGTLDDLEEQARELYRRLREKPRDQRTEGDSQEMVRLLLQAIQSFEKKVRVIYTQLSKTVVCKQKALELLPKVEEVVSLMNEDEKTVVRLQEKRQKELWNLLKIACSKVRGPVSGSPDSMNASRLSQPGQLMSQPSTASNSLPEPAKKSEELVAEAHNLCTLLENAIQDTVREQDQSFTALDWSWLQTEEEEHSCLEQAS
Put plainly: DELFIA kinase assay, IKKβ. Format: biochemical. The note with it: read-out: Ki Values IKKβ. Here is the method: (§1) IKKα and IKKβ inhibitory activity were determined using a dissociation-enhanced ligand fluorescent immunoassay (DELFIA) based on the protocol of HTScan™ IKKβ Kinase Assay (Cell Signaling Technology, Danvers, MA, USA) as described in [24].

The target in experiment [2] is T2, IKKα (Homo sapiens, UniProt O15111).
T2 sequence (O15111 1-745): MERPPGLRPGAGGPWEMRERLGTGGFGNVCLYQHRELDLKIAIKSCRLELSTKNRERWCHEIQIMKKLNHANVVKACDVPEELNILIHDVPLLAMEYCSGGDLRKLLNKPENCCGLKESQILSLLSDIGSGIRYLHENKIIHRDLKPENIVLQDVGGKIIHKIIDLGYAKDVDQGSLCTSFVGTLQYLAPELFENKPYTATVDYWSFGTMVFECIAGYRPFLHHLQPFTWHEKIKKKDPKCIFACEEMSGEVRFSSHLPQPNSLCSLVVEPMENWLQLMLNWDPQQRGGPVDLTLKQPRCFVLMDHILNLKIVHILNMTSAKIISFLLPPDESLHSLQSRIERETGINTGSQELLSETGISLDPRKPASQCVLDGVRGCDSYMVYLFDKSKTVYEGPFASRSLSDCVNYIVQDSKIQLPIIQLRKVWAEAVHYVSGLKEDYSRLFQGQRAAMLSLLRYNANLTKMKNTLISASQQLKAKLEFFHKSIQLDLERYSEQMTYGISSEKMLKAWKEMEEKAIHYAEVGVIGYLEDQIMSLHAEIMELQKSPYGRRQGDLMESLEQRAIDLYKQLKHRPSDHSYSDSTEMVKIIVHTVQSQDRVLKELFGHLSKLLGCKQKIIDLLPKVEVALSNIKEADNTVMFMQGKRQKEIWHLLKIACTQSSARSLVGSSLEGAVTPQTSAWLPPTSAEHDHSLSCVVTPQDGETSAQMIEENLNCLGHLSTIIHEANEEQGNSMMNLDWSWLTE
The experiment in a line: DELFIA kinase assay, IKKα. The note with it: for Ki: DELFIA kinase assay; for Selectivity for IKKα over IKKβ: ratio of Ki IKKβ to Ki IKKα. Format: biochemical.
Description: To examine the pyrrolo[2,3-b]pyridines as an alternative scaffold, we adopted the AIPP core because it had similar dimensions to SU909 (1), with HBD/HBA motifs positioned at the scaffold extremities to interact with both the hinge region and the G-loop wall of IKKα, a rationale we had previously proposed as the basis for imparting selectivity. A preliminary set of AIPP derivatives was designed and synthesised to explore its utility as an IKK-targeting scaffold, whilst incorporating additional functionality through which to introduce selectivity for the IKKα isoform (2–4; Figure 3). This was achieved by initially adopting two different approaches: either appending a hydrophobic moiety to the pyrrolo[2,3-b]pyridine motif as a fused form to afford the tricyclic derivatives 2 and 3, or as a phenyl substituent to introduce flexibility with respect to the central pyrrolo[2,3-b]pyridine moiety in 4. When assessed against IKKα and IKKβ using our in-house DELFIA kinase assay […] The pyrrolo[2,3-b]pyridine was bound to the hinge region in the classical HBA/HBD motif with the GK+3 amide backbone, whilst the aminoindazole projected towards the top of the pocket to interact with the G-loop (Figure 4A). […] In both isoforms, the 2-phenyl moiety protruded away from the hinge towards the exposed solvent area.
as §1

What is called Ki is a measure of affinity in units of concentration, obtained from inhibition or displacement.

For `Nc1n[nH]c2ccc(-c3ccnc4[nH]c(-c5ccccc5)cc34)cc12` [Compound 4], the Ki in experiment [1] worked out at 15 nM; in experiment [2], 3 nM.
For `Nc1n[nH]c2ccc(-c3ccnc4[nH]c(-c5cccc(OCc6ccccc6)c5)cc34)cc12` [Compound 5r [SU1261]], in that order: 680 nM and 10 nM.
`Nc1n[nH]c2ccc(-c3ccnc4[nH]c(-c5ccnc(OCc6ccccc6)c5)cc34)cc12` [Compound 6g [SU1349]]: the Ki in experiment [1] was determined as 3350 nM; in experiment [2] it was 16 nM. Also, the “Selectivity for IKKα over IKKβ” value is given as 209 fold in experiment [2] (listed as 6g [SU1349]) and 209.5 fold in experiment [2] (listed as SU1349).

The values above are taken from article PMC11314561, “Design and Synthesis of Novel Aminoindazole-pyrrolo[2,3-b]pyridine Inhibitors of IKKα That Selectively Perturb Cellular Non-Canonical NF-κB Signalling” (Molecules, 2024).
